This experiment concerns the target T1, PKC-ι (Homo sapiens, UniProt P41743).
T1 sequence (P41743 2-596): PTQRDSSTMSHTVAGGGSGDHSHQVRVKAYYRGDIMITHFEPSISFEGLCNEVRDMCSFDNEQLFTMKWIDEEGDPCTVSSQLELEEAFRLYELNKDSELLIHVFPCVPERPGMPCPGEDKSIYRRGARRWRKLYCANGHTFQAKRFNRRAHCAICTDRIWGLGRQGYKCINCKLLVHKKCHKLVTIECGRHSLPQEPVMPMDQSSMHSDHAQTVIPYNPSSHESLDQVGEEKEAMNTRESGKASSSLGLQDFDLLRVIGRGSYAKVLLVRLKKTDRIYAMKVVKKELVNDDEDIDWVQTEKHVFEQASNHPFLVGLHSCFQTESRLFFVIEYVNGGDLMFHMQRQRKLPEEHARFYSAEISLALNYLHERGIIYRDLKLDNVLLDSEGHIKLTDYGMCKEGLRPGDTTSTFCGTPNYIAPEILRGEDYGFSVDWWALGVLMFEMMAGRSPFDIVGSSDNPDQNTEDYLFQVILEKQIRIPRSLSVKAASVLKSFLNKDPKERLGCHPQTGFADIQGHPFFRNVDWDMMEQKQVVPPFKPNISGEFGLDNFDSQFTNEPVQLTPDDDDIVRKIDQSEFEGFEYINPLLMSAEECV
As to the kind of experiment: […]-ATP kinase assay of recombinant PKC-ι activated by PIP3, dose response. In kind it is biochemical.

Broadly, the IC50 is the concentration at which inhibition is half-maximal. `NC(=O)c1ncn([C@@H]2C[C@H](COP(=O)(O)O)[C@@H](O)[C@H]2O)c1N` [ICAPP]: the IC50 was 10 to 100 nM.
